Data as given in patent publication US20020062490A1, “Hypertension” (priority 2000, published 2002).
“And” between values parts separate entries of the source, which are not always exact repeats. Identical values can stand only once.

Experiments:
[1] = tested on: aortic VSM cells; assay: MAPK (ERK1/2) activity after βAR stimulation in aorta VSM cells; format: cell-based, mice; conditions: 10^−5M isoproterenol, 5 minutes
Method: MAPK Activity: To study MAPK activity, cells were stimulated with isoproterenol at the described concentration for 5 minutes. Cells were then harvested and homogenized in ice-cold RIPA buffer with 1 mM sodium orthovanadate (Iaccarino et al, Proc. Natl. Acad. Sci. USA 96:3945-3950 (1999b)). MAPK activity as assessed by phosphorylated protein levels was performed by activity assays as previously described (Iaccarino et al, Proc. Natl. Acad. Sci. USA 96:3945-3950 (1999b)). Protein immunoblotting for the activated phosphorylated forms of ERK1/2 and JNK1/3 (New England Biolabs) was normalized to total MAPK levels using antibodies specific to total ERK1/2 and JNK1 (Santa Cruz Biotechnologies, California).
As a second assay to measure βAR mediated signaling in VSM cells from GRK2 transgenic and NLC mice, we investigated MAPK activity after βAR stimulation. Two MAPKs were studied, extracellular-regulated kinase (ERK1/2 or p42/p44 MAPKs) and c-jun kinase (JNK). FIG. 7C is a representative autoradiograph of the ability of immunoprecipitated ERK1/2 or JNK1/3 to phosphorylates their in vitro substrates myelin basic protein (MBP) or GST-c-jun, respectively, after the addition of different doses of isoproterenol to aortic VSM cells from NLC and SM22α-GRK2-25 mice. […] This was also the case for the activity of JNK1/3 and its ability to phosphorylate GST-c-jun (FIG. 7C). […]

[2] = Blood pressure responses in anesthetized mice to infused GPCR agonists; format: in vivo; conditions: for decrease from resting MAP: 0.156 μg/kg isoproterenol, n=3; for change from resting diastolic pressure: 0.625 μg/kg isoproterenol; for diastolic pressure response: 10 μg/kg isoproterenol; for MAP response (increase over resting MAP): 8 μg/kg phenylephrine; for increase over resting MAP: 1 μg/kg angiotensin II
Method: In order to begin to understand the mechanisms involved in the GRK2 overexpression-induced hypertension and the receptors that are desensitized, blood pressure responses were measured in anesthetized mice following angiotensin II (FIG. 5A), phenylephrine (FIG. 5B) or isoproterenol (FIG. 5C) infusion. The response to 1 μg/kg angiotensin II was attenuated (NLC 91+12%, n=9 versus BK25 43+8% increase over resting MAP, n=4, p=0.02), as were responses to 8 μg/kg phenylephrine (NLC: 44±11% versus 4±5%, n=4, p=0.04). MAP responses to isoproterenol were not different in GRK2 overexpressing mice as compared with NLC. However, isoproterenol has a significant effect on heart rate that could affect MAP. Therefore, diastolic pressure was examined as a rough estimate of peripheral resistance.
In vivo Physiology: Mice were anesthetized with ketamine (100 mg/kg body weight) and xylazine (5 mg/kg body weight). Subsequently, a flexible plastic catheter (flame-stretched PE50 tubing) was placed in the left carotid artery to monitor arterial pressure and tunneled subcutaneously to exit at the nape of the neck. The catheter was then flushed with 100 μL of heparinized phosphate-buffered saline (PBS) (30 U/mL), sealed and attached to the skin between the scapulae. Twenty-four hours later, blood pressure measurements are recorded from awake, unrestrained mice. Intra-arterial blood pressure is recorded continuously through the carotid catheter using PowerLab (ADInstruments, Mountainview, Calif.) data acquisition and software. In both anesthetized and awake animals, systolic (SBP) and diastolic blood pressure (DBP), and heart rate were measured. Mean arterial pressure (MAP) was calculated as DBP+⅓(SBP- DBP). The recordings from animals in each experimental group were then integrated and averaged. To analyze acute blood pressure responses, a second catheter was placed in the jugular vein to infuse agonists. Immediately following an equilibration period, mice received a bolus injection at 2-5 min intervals.

[3] = tested on: aortic VSM cells; assay: Intracellular cAMP accumulation (adenylyl cyclase activity) in cultured aortic VSM cells; format: cell-based; conditions: aortic VSM cells from SM22α-GRK2-25 mice, compared with NLC cells
Method: Cell Culture: Primary cultures of VSM from thoracic aortas and vena cava were obtained and cultured as described (Chen et al, J. Biol. Chem. 270:30980-30988 (1995)). To determine adenylyl cyclase activity, cultured cells were grown to four days post-confluence. Cells were then labeled overnight in 3.0 μCi/mL [^3H]adenine (DuPont/NEN) in medium 199 and then preincubated in medium 199 with 10 mM Hepes and 1 mM 3-isobutyl-1-methylxanthine (IBMX) for 30 min. Cells were then stimulated with the appropriate concentration of isoproterenol or […] for 15 minutes. Following incubation, cAMP was determined by anion exchange chromatography and a percent incorporation of the total [^3H] uptake was calculated. To determine if enhanced expression and activity of GRK2 seen in cultured VSM cells from SM22α-GRK2 mice could exert an effect on signaling, intracellular cAMP accumulation in cultured aortic VSM cells in response to the βAR agonist isoproterenol was examined.

[4] = tested on: thoracic aorta ring segments; assay: Responses of isolated thoracic aorta ring segments to GPCR agonists; design: species or system mice
Method: In Vitro Physiology: Aorta were dissected and cut into 2.5 mm rings. Rings were then placed in a 37° C. chamber (Kent Scientific) containing Krebs-Hensileit buffer and bubbled with 95% O2/5% CO2. Two stainless steel wires were placed through each ring and one wire is attached to a fixed end. The other was attached to a force transducer and contraction is measured by force displacement (PowerLab, ADInstruments, Mountainview, Calif.). Responses to various agonists were tested in the presence and absence (mechanically scraped using a thin wire or chemical inhibition of nitric oxide synthase using 100 μM L-NAME) of endothelial cells. For isoproterenol responses, pretension was established at 60% of the maximum phenylephrine response (3×10^−7M PE).
Pharmacology: To analyze the effect of VSM GRK2 overexpression independent of autonomic influences on the peripheral vasculature, responses of isolated thoracic aorta ring segments to the GPCR agonists isoproterenol (βAR) and phenylephrine ([…]) were examined. Endothelial cell presence was first verified by relaxation responses to 10^−5M acetylcholine. […] Accordingly, pretension for the βAR studies was established using 3×10^−7M phenylephrine, which corresponded to 60% maximum phenylephrine stimulation in both NLC and transgenic mice. […]

What does the source list for `CC(C)NCC(O)c1ccc(O)c(O)c1` (stereo not shown) [isoproterenol]?
induction of phosphorylation status of ERK1/2 ([1]; NLC VSM cells): robust increase; induction of phosphorylation status of ERK1/2 (activation) ([1]; SM22α-GRK2-25 VSM cells): virtually abolished; decrease from resting MAP ([2]; anesthetized NLC mice): −30±2.8 mmHg; decrease from resting MAP ([2]; anesthetized SM22α-GRK2 mice): −4.7±3.2 mmHg; change from resting diastolic pressure ([2]; anesthetized BK25 mice, n=4): −11±3%; change from resting diastolic pressure ([2]; anesthetized NLC mice, n=9): −39±8%; diastolic pressure response ([2]; anesthetized BK25 mice, n=4): −11±3%; diastolic pressure response ([2]; anesthetized WT mice, n=9): −39±8%; MAP responses, GRK2 overexpressing mice compared with NLC ([2]; anesthetized mice, cumulative doses of isoproterenol): not different; cAMP generation [3]: minimal increase

With `CNC[C@H](O)c1cccc(O)c1` [phenylephrine] as the molecule, how does the “MAP response (increase over resting MAP)” value ([2]; anesthetized GRK2 overexpressing (BK25) mice, n=4) read?
Its value is 4±5%.

What about the “MAP response (increase over resting MAP)” value ([2]; anesthetized NLC (WT) mice) of the same molecule?
Its value is 44±11%.

And the “fraction of maximum phenylephrine stimulation (pretension)” value ([4]; 3×10^−7M phenylephrine, aorta rings of both NLC and transgenic mice)?
The value was 60%.

What about the “constriction of aorta rings, NLC compared with SM22α-GRK2-25 mice” value ([4]; cumulative dose response) of the same molecule?
Its value is “similar”.

With “angiotensin II [GPCR agonist infused to raise blood pressure]” as the molecule, how does the “increase over resting MAP” value ([2]; anesthetized BK25 (GRK2 overexpressing) mice, n=4) read?
Its value is 43+8% and 43±8%.

And the “increase over resting MAP” value ([2]; anesthetized NLC (WT) mice, n=9)?
Its value is 91+12% and 91±12%.
